Assay results reported in PubChem BioAssay AID2060896 (Molecular Pharmacology Branch, DTP, NCI, 2025).
Each block holds one molecule with its values, some of them ahead of it.

Tested on: 941728-121-R-J1-PDC complex spheroid viability
Assay: Anticancer human tumor 941728-121-R-J1-PDC patient-derived lung adenocarcinoma cell line growth inhibition [RAS]
Conditions: for IC50: curve of first compound; for viability, T/C: stronger effect = lower value
In short: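 Tumour cells grown as complex spheroids with HUVEC endothelial cells and mesenchymal stem cells, treated with RAS pathway inhibitor combinations. Each agent spans half-log steps from near clinical Cmax, or 10 microM where Cmax is unknown.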

[1] = second compound 0.000949 µM, first compound 0.0316 µM
[2] = second compound 0.000949 µM, first compound 0.1 µM
[3] = second compound 0.000949 µM, first compound 0.316 µM
[4] = second compound 0.000949 µM, first compound 1 µM
[5] = second compound 0.000949 µM, first compound 3.16 µM
[6] = second compound 0.000949 µM, first compound 10 µM
[7] = second compound 0.003 µM, first compound 0.0316 µM
[8] = second compound 0.003 µM, first compound 0.1 µM
[9] = second compound 0.003 µM, first compound 0.316 µM
[10] = second compound 0.003 µM, first compound 1 µM
[11] = second compound 0.003 µM, first compound 3.16 µM
[12] = second compound 0.003 µM, first compound 10 µM
[13] = second compound 0.00949 µM, first compound 0.0316 µM
[14] = second compound 0.00949 µM, first compound 0.1 µM
[15] = second compound 0.00949 µM, first compound 0.316 µM
[16] = second compound 0.00949 µM, first compound 1 µM
[17] = second compound 0.00949 µM, first compound 3.16 µM
[18] = second compound 0.00949 µM, first compound 10 µM
[19] = second compound 0.03 µM, first compound 0.0316 µM
[20] = second compound 0.03 µM, first compound 0.1 µM
[21] = second compound 0.03 µM, first compound 0.316 µM
[22] = second compound 0.03 µM, first compound 1 µM
[23] = second compound 0.03 µM, first compound 3.16 µM
[24] = second compound 0.03 µM, first compound 10 µM
[25] = second compound 0.0949 µM, first compound 0.0316 µM
[26] = second compound 0.0949 µM, first compound 0.1 µM
[27] = second compound 0.0949 µM, first compound 0.316 µM
[28] = second compound 0.0949 µM, first compound 1 µM
[29] = second compound 0.0949 µM, first compound 3.16 µM
[30] = second compound 0.0949 µM, first compound 10 µM
[31] = second compound 0.3 µM, first compound 0.0316 µM
[32] = second compound 0.3 µM, first compound 0.1 µM
[33] = second compound 0.3 µM, first compound 0.316 µM
[34] = second compound 0.3 µM, first compound 1 µM
[35] = second compound 0.3 µM, first compound 3.16 µM
[36] = second compound 0.3 µM, first compound 10 µM
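Note: spheroids exposed to compounds for 7 days before readout.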
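Throughout, for viability, T/C: 100% = DMSO vehicle control viability.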

IC50 (second compound 0.000949 µM): < 31.6 nM | IC50 (second compound 0.003 µM): < 31.6 nM | IC50 (second compound 0.00949 µM): < 31.6 nM | IC50 (second compound 0.03 µM): < 31.6 nM | IC50 (second compound 0.0949 µM): < 31.6 nM | IC50 (second compound 0.3 µM): < 31.6 nM
SMILES: Cc1nc(N2CCC3(CC2)COC(C)C3N)c(CO)nc1Sc1ccnc(N)c1Cl (stereo unspecified) + CCn1c(-c2cccnc2C(C)OC)c2c3cc(ccc31)N1CCOC(CC(NC(=O)C(C(C)C)N(C)C(=O)C3(F)CCN(C(=O)C#CC(C)(C)N(C)C)CC3)C(=O)N3CCCC(N3)C(=O)OCC(C)(C)C2)C1
viability, T/C [1]: 21.6% | viability, T/C [2]: 20.3% | viability, T/C [3]: 13.3% | viability, T/C [4]: 18.1% | viability, T/C [5]: 19.1% | viability, T/C [6]: 14.4% | viability, T/C [7]: 21.7% | viability, T/C [8]: 20.4% | viability, T/C [9]: 14.2% | viability, T/C [10]: 17.5% | viability, T/C [11]: 18.1% | viability, T/C [12]: 13.7% | viability, T/C [13]: 20.1% | viability, T/C [14]: 16.8% | viability, T/C [15]: 16.8% | viability, T/C [16]: 18.4% | viability, T/C [17]: 15.7% | viability, T/C [18]: 15.6% | viability, T/C [19]: 19.7% | viability, T/C [20]: 19% | viability, T/C [21]: 17.5% | viability, T/C [22]: 15.7% | viability, T/C [23]: 13.1% | viability, T/C [24]: 17.6% | viability, T/C [25]: 21.4% | viability, T/C [26]: 20.7% | viability, T/C [27]: 19.9% | viability, T/C [28]: 17.3% | viability, T/C [29]: 15.2% | viability, T/C [30]: 19.6% | viability, T/C [31]: 22.1% | viability, T/C [32]: 20.9% | viability, T/C [33]: 20.6% | viability, T/C [34]: 18.3% | viability, T/C [35]: 18.8% | viability, T/C [36]: 23.2%

IC50 (second compound 0.000949 µM): < 31.6 nM | IC50 (second compound 0.003 µM): < 31.6 nM | IC50 (second compound 0.00949 µM): < 31.6 nM | IC50 (second compound 0.03 µM): < 31.6 nM | IC50 (second compound 0.0949 µM): < 31.6 nM | IC50 (second compound 0.3 µM): < 31.6 nM
SMILES: NC1c2ccccc2OC12CCN(c1cnc3c(N4CCCc5ncccc54)n[nH]c3n1)CC2 (stereo unspecified) + CCn1c(-c2cccnc2C(C)OC)c2c3cc(ccc31)N1CCOC(CC(NC(=O)C(C(C)C)N(C)C(=O)C3(F)CCN(C(=O)C#CC(C)(C)N(C)C)CC3)C(=O)N3CCCC(N3)C(=O)OCC(C)(C)C2)C1
viability, T/C [1]: 18.5% | viability, T/C [2]: 17.7% | viability, T/C [3]: 12.8% | viability, T/C [4]: 17.6% | viability, T/C [5]: 16.6% | viability, T/C [6]: 13.9% | viability, T/C [7]: 16.5% | viability, T/C [8]: 15.7% | viability, T/C [9]: 15.1% | viability, T/C [10]: 15.9% | viability, T/C [11]: 17.1% | viability, T/C [12]: 13.5% | viability, T/C [13]: 17.8% | viability, T/C [14]: 15.3% | viability, T/C [15]: 17.9% | viability, T/C [16]: 18.3% | viability, T/C [17]: 16.7% | viability, T/C [18]: 15.4% | viability, T/C [19]: 19.2% | viability, T/C [20]: 17.6% | viability, T/C [21]: 18.8% | viability, T/C [22]: 17.1% | viability, T/C [23]: 16.1% | viability, T/C [24]: 20.3% | viability, T/C [25]: 19.7% | viability, T/C [26]: 19.4% | viability, T/C [27]: 19% | viability, T/C [28]: 18.9% | viability, T/C [29]: 16% | viability, T/C [30]: 20.2% | viability, T/C [31]: 20.2% | viability, T/C [32]: 20.5% | viability, T/C [33]: 20.8% | viability, T/C [34]: 18.2% | viability, T/C [35]: 18.6% | viability, T/C [36]: 22.6%

IC50 (second compound 0.000949 µM): < 3.16 nM | IC50 (second compound 0.003 µM): < 3.16 nM | IC50 (second compound 0.00949 µM): < 3.16 nM | IC50 (second compound 0.03 µM): < 3.16 nM | IC50 (second compound 0.0949 µM): < 3.16 nM | IC50 (second compound 0.3 µM): < 3.16 nM
SMILES: Nc1ccn(C2OC(CO)C(O)C2(F)F)c(=O)n1 (stereo unspecified) + CCn1c(-c2cccnc2C(C)OC)c2c3cc(ccc31)N1CCOC(CC(NC(=O)C(C(C)C)N(C)C(=O)C3(F)CCN(C(=O)C#CC(C)(C)N(C)C)CC3)C(=O)N3CCCC(N3)C(=O)OCC(C)(C)C2)C1
viability, T/C (second compound 0.000949 µM, first compound 0.00316 µM): 23.9% | viability, T/C (second compound 0.000949 µM, first compound 0.01 µM): 20.1% | viability, T/C [1]: 18.7% | viability, T/C [2]: 18.2% | viability, T/C [3]: 19.5% | viability, T/C [4]: 15.3% | viability, T/C (second compound 0.003 µM, first compound 0.00316 µM): 22% | viability, T/C (second compound 0.003 µM, first compound 0.01 µM): 18% | viability, T/C [7]: 16.9% | viability, T/C [8]: 19.5% | viability, T/C [9]: 18.4% | viability, T/C [10]: 13.2% | viability, T/C (second compound 0.00949 µM, first compound 0.00316 µM): 22.1% | viability, T/C (second compound 0.00949 µM, first compound 0.01 µM): 15.5% | viability, T/C [13]: 18.8% | viability, T/C [14]: 18.2% | viability, T/C [15]: 20.9% | viability, T/C [16]: 17% | viability, T/C (second compound 0.03 µM, first compound 0.00316 µM): 20.4% | viability, T/C (second compound 0.03 µM, first compound 0.01 µM): 20.4% | viability, T/C [19]: 21.4% | viability, T/C [20]: 17.4% | viability, T/C [21]: 14.5% | viability, T/C [22]: 17.7% | viability, T/C (second compound 0.0949 µM, first compound 0.00316 µM): 21.6% | viability, T/C (second compound 0.0949 µM, first compound 0.01 µM): 22.1% | viability, T/C [25]: 20.1% | viability, T/C [26]: 17.6% | viability, T/C [27]: 19.5% | viability, T/C [28]: 16.7% | viability, T/C (second compound 0.3 µM, first compound 0.00316 µM): 20.3% | viability, T/C (second compound 0.3 µM, first compound 0.01 µM): 20.6% | viability, T/C [31]: 17.6% | viability, T/C [32]: 18.1% | viability, T/C [33]: 16.6% | viability, T/C [34]: 19.2%
